Data from US20090215638A1, “ANTIBIOTIC SUSCEPTIBILITY AND VIRULENCE FACTOR DETECTION IN PSEUDOMONAS AERUGINOSA” (priority 2005, published 2009).

Experiments:
[1] = system: P. aeruginosa clinical isolates; assay: Antibiotic susceptibility testing, NEG MIC Type 30 panel on MicroScan WalkAway-96 SI, MICs interpreted according to NCCLS guidelines; type: cell-based, Pseudomonas aeruginosa; settings: for 60 MIC: MIC of resistant isolates
Source text: The wild-type reference strain P. aeruginosa PAO1 was obtained from the ATCC (AT47085). The other P. aeruginosa strains were collected from patients at the Robert Bosch Hospital in Stuttgart, Germany. They were recovered from respiratory samples (n=51), swabs (n=5), urine (n=2) and feces (n=2). All isolates were identified with the API 20NE system (bioMerieux, Marcy l'Etoile, France) and the NEG Breakpoint Combo Type 30 panel on the MicroScan WalkAway ®-96 SI system (Dade Behring, Liederbach, Germany). All bacterial strains were either routinely cultured at 37° C. on Mueller-Hinton (MH) agar or grown in Luria Bertani broth (LB).
The antibiotic susceptibility was determined with the NEG MIC Type 30 panel on the MicroScan WalkAway ®-96 SI system. The MICs were interpreted according to the NCCLS guidelines.
The test collective of P. aeruginosa isolates was recovered from three intensive care units (ICU) or other hospital wards as far as an unusual multidrug resistance was observed. […] 4.

[2] = system: P. aeruginosa clinical isolates; parameters: species or system Pseudomonas aeruginosa; settings: predicted from mutations and resistance genes found by array in 60 isolates
Procedure: Chromosomal DNA was extracted with the QIAmp DNA Mini Kit, plasmid DNA with the QIAprep Spin Miniprep Kit according to manufacturer's instructions (Qiagen, Hilden, Germany). A set of 4 multiplex PCRs (Tab. 1) was set up to amplify the sequences of interest from the chosen genes. The PCRs were carried out with the Advantage®-GC Genomic PCR Kit (BD Bioscience, San Jose, USA) according to manufacturer's instructions, for fluorescence labeling 5 μl of each 1 mM dNTP was used, for dCTP a 2:3 mixture of Cy3-dCTP and dCTP. The cycle reactions consisted of 30 cycles of 30 s at 95° C., 30 s at 55° C. and 1 min at 72° C. PCR products were purified with the QIAquick PCR Purification Kit (Qiagen, Hilden, Germany) according to the manufacturer's instructions. The quality and sizes of PCR products were checked on a lab-on-a-chip Bioanalyzer 2100 electrophoresis with the DNA 1500 LabChip kit (Agilent, Böblingen, Germany). Sequencing was performed on the ABI PRISM® 310 Genetic Analyzer using the BigDyee® Terminator Cycle Sequencing Kit v1.1 (Applied Biosystems, Foster City, USA). The manufacturer's protocol was followed using the same primers as for the multiplex PCRS. […]
The oligonucleotide arrays were scanned with a arrayWoRx Biochip Reader (Applied Precision, Marlborough, UK). The scanner settings for fluorescence signal acquisition were set to “High Precision” and 0.2 s acquisition time. […]

[3] = Table 3, test collective of 60 clinical isolates
[4] = Table 6, phenotypic resistance rate, 60 clinical isolates
[5] = Table 6, phenotypic resistance, 60 clinical isolates

Compound	Susceptibility profile, Isolate 1 ([1]; first of 3 consecutive isolates from the same patient)	Susceptibility profile, Isolate 3 ([1]; last of 3 consecutive isolates from the same patient, within three weeks)	Susceptibility profile, Isolate 2 ([1]; second of 3 consecutive isolates from the same patient, collected one week after the first)	susceptibility rate ([1]; test collective of isolates)	% of resistant isolates out of 60 [1, 3] [%]	Number of resistant isolates out of 60 [1, 3]	60 MIC ([1]; Table 6) [µg/mL]	% of resistant isolates out of 60 [1, 4] [%]	Number of resistant isolates out of 60 [1, 5]	Cumulative resistance predicttion deduced from array [2] [%]	resistance rate ([1]; test collective of isolates) [%]
NC[C@H]1O[C@H](O[C@H]2[C@H](O)[C@@H](O[C@H]3O[C@H](CO)[C@@H](O)[C@H](N)[C@H]3O)[C@H](N)C[C@@H]2N)[C@H](N)C[C@@H]1O [Tobramycin, tobramycin]	susceptible	resistance	susceptible								
C[C@@H](O)[C@H]1C(=O)N2C(C(=O)O)=C(SCCN=CN)C[C@H]12 [Imipenem, imipenem]				less than 55%							
CC(C)(O/N=C(\C(=O)N[C@@H]1C(=O)N2C(C(=O)[O-])=C(C[n+]3ccccc3)CS[C@H]12)c1csc(N)n1)C(=O)O [Ceftazidim, ceftazidime]					33	20	>16	33	20		
gentamicin					37	22	>8	37	22	45	
colistin					0	0		0	0	0	0
piperacillin/tazobactam					33	20	>64	33	20		
